Five compounds from ChEMBL document CHEMBL2057146, “Improvement by sodium dl-α-tocopheryl-6-O-phosphate treatment of moisture-retaining ability in stratum corneum through increased ceramide levels” (Bioorg Med Chem, 2012) can be followed below.

Test [1] has as its system Mus musculus. Put plainly: Increase in ceramide content in hairless mouse skin at 1% v/v administered topically after 4 weeks relative to vehicle treated control. The format is functional.
Test [2] deals with Mus musculus. In words: Increase in ceramide content in hairless mouse skin at 1% w/v administered topically after 30 hrs relative to vehicle treated control. The format is functional.
Test [3] deals with Keratinocyte. In words: Increase in ceramide content in keratinocytes at […] after 24 hrs relative to vehicle treated control. The format is functional.
Test [4] has as its system Homo sapiens. In words: Increase in ceramide content in human skin at 2% administered topically after 4 weeks relative to vehicle treated control. The format is functional.
For test [5], the system named is Homo sapiens. Put plainly: Increase in ceramide content in human skin at 4% administered topically after 4 weeks relative to vehicle treated control. The format is functional.
Test [6] deals with Keratinocyte. In words: Increase in ceramide content in normal human keratinocytes at 1 to 30 uM after 6 days relative to vehicle treated control. The format is functional.
Test [7] is described as follows: Upregulation of SPTLCB2 mRNA expression in neonatal human foreskin keratinocytes at 10 uM after 4 days relative to vehicle treated control. The format is functional, cell-based. The note with it: Keratinocyte.
Test [8] is described as follows: Upregulation of SPTLCB1 mRNA expression in neonatal human foreskin keratinocytes at 10 uM after 4 days relative to vehicle treated control. The note with it: Keratinocyte. The format is functional, cell-based.
The subject of test [9] is Keratinocyte. Put plainly: Increase in ceramide content in keratinocytes at 1% after 6 days relative to vehicle treated control. The format is functional.
Test [10] concerns Homo sapiens. Put plainly: Increase in ceramide content in human skin at 0.3 to 1% administered topically after 11 days relative to vehicle treated control. The format is functional.

Consider `CCO[C@H]1O[C@H](CO)[C@@H](O)[C@H](O)[C@H]1O`, for which the “fold change (FC)” value in test [1] was found to be 1.1.
As for `O=C1CCCCCCCCCCCC(=O)OCCO1`, the “fold change (FC)” value in test [2] amounted to 1.3.
As to `CC(O)C(=O)O` (configuration not stated) [LACTIC ACID], the “fold change (FC)” value in [3] is 4.3; in [4], 1.4; in test [5], 1.4.
With `NC(=O)c1cccnc1` [NIACINAMIDE], the “fold change (FC)” value came to 4.1 in test [6]; 1.4 in test [4]; 1.4 in test [5]; 1.8 in test [7]; 1.8 in test [8].
As for `C[C@H]1[C@H](C)CC[C@]2(C(=O)O)CC[C@]3(C)C(=CC[C@@H]4[C@@]5(C)CC[C@H](O)C(C)(C)[C@@H]5CC[C@]43C)[C@H]12` [URSOLIC ACID], the “fold change (FC)” value was 2.2 in test [9] and 1.3 in test [10].
